Columns and labels:
MCF-7 (breast) = test: In vitro growth inhibition (SRB), MCF-7; assay type: cell-based, human; settings: 48 hours incubation
Protocol: (§1) Newly prepared compounds were evaluated for cytotoxic activity against a variety of cell lines derived from human tumors using an assay system similar to the National Cancer Institute procedure previously described (Monks et al, J. Natl. Cancer Inst., 1991). Briefly, the cell suspensions, diluted according to the particular cell type and the expected target cell density (5,000-40,000 cells per well based on cell growth characteristics), were added by pipet (100 μl) to 96-well microtiter plates. Inoculates were allowed a preincubation time of 24-28 hours at 37° C. for stabilization. Incubation with the inhibitor compounds lasted for 48 hours in 5% CO2 atmosphere and 100% humidity. Determination of cell growth was performed by in situ fixation of cells, followed by staining with a protein-binding dye sulforhodamine B (SRB), which binds to the basic amino acids of cellular macromolecules. The solubilized stain was measured spectrophotometrically.
(§2) Several compounds were evaluated for cytotoxic activity against […] P388 leukemia cell lines. […] These and additional compounds were evaluated in terms of growth inhibitory activity against several other […] cancer cell lines including: central nervous system (“CNS”, SF-295), pancreas (BXPC-3), non-small cell lung cancer (“lung-NSC”, NCI-H460), breast (MCF-7), colon (KM20L2), ovarian (OVCAR-3), and prostate (DU-145). […]

[1] = test system: MHEC-5T hemangioendothelioma tumor; test: Inhibition of tumor blood flow, Fluorescent Bead Assay; assay type: in vivo, mice; settings: for % VAPM (vessel area per tumor tissue area as a percentage of the control): single i.p. injection, 24 hours post-treatment
Protocol: The antivascular effects of the indole phosphate prodrug Oxi-8007, was assessed in tumor-bearing mice using a Fluorescent Bead Assay. A MHEC-5T hemangioendothelioma tumor model was established by subcutaneous injection of 0.5×10^6 cultured transformed cell murine myocardial vascular endothelial cell line (“MHEC5-T”) cells into the right flank of Fox Chase CB-17 Severe Combined Immunodeficient (“SCID”) mice. When transplanted tumors reached a size of 500 mm^3 (a size without development of necrosis), the mice received a single intraperitoneal (i.p.) injection of saline control or compound at doses ranging from 3.2 to 25 mg/kg. At 24 hours post-treatment, mice were injected intravenously with 0.25 ml of diluted FluoSphere beads (1:6 in physiological saline) in the tail vein, sacrificed after 3 minutes, and tumor was excised for cryosectioning. Tumor cryosections at a thickness of 8 um were directly examined using quantitative fluorescent microscopy. Blood vessels were indicated by blue fluorescence from injected beads. For quantification, image analysis of 3 sections from three tumors treated in each group were examined and vascular shutdown was expressed as vessel area (mm^2) per tumor tissue area (mm^2) as a percentage of the control (“%VAPM”). The results as shown in Table 4 indicate a clear dose-dependent effect of the agent on tumor blood flow as indicated by the reduction in blood vessel area at 24 hours following administration of Oxi8007. Administration of a dose of 100 mg/kg of Oxi-8007 or higher was particularly effective, causing a >98% reduction in tumor vessel volume relative to the control. A time-course of the effect of OX08007 on tumor blood flow is illustrated in FIG. 14.
Additional compounds of the present invention were tested for antivascular effects at two dosages (100 mg/kg and 10 mg/kg) using the same Fluorescent Bead Assay as in the previous experiment.

KM20L2 (colon) = test: In vitro growth inhibition (SRB), KM20L2; assay type: cell-based, human; settings: 48 hours incubation
Protocol: as §1, §2

DU-145 (prostate) = test: In vitro growth inhibition (SRB), DU-145; assay type: cell-based, human; settings: 48 hours incubation
Protocol: as §1, §2

SF-295 (CNS) = test: In vitro growth inhibition (SRB), SF-295; assay type: cell-based, human; settings: 48 hours incubation
Protocol: as §1, §2

BXPC-3 (pancreas) = test: In vitro growth inhibition (SRB), BXPC-3; assay type: cell-based, human; settings: 48 hours incubation
Protocol: as §1, §2

NCI-H460 (lung-NSC) = test: In vitro growth inhibition (SRB), NCI-H460; assay type: cell-based, human; settings: 48 hours incubation
Protocol: as §1, §2

MDA-MB-231 cells = test: Tumor growth control in vivo, MDA-MB-231 human breast adenocarcinoma model; settings: SCID mice, 25, 50 or 100 mg/kg daily i.p. for 5 consecutive days; effective dose printed as X mg/kg
Protocol: The antitumor activity of indole phosphate prodrug, Oxi-8007, was assessed in tumor-bearing mice by measuring its effects on tumor volume. A human breast adenocarcinoma model was established by subcutaneous injection of cultured MDA-MB-231 cells in Fox Chase CB-17 SCID mice. When the average tumor size reached 50-100 mm^3, mice were randomly divided into several groups (n=10) with no significant difference in body weight and tumor size. Mice were administered Oxi-8007 in saline carrier at doses of 25, 50 or 100 mg/kg by daily intraperitoneal (i.p.) injection for 5 consecutive days (Q1×5). Saline carrier only was used as the control treatment. On Day 3, 7, 10, 13, 17 and 23, tumors were excised from animals in each treatment group (n=2) and measured by width and length. Tumor volume was calculated according to the following formula: Length×Width^2×0.4. The dosage effects of Oxi-com 197 is illustrated in FIG. 15.

## COc1ccc2c(C(=O)c3cc(OC)c(OC)c(OC)c3)c(-c3ccc(OC)c(OP(=O)([O-])[O-])c3)[nH]c2c1.[Na+].[Na+] [Oxi-8007, 2-(3′-Disodiumphosphate-4′-methoxyphenyl)-3-(3″,4″,5″-trimethoxybenzoyl)-6-methoxyindole]
MCF-7 (breast)
  GI50 for Cell Line MCF-7: 2.3 ng/mL
[1]; 50 mg/kg
  % VAPM (vessel area per tumor tissue area as a percentage of the control): 52%
[1]; 100 mg/kg
  % VAPM (vessel area per tumor tissue area as a percentage of the control): 2%
[1]; 200 mg/kg
  % VAPM (vessel area per tumor tissue area as a percentage of the control): 1%
[1]; dose of 100 mg/kg or higher, 24 hours
  reduction in tumor vessel volume relative to the control: > 98%
KM20L2 (colon)
  GI50 for Cell Line KM20L2: 4.3 ng/mL
DU-145 (prostate)
  GI50 for Cell Line DU-145: <1 ng/mL
SF-295 (CNS)
  GI50 for Cell Line SF-295: 5.5 ng/mL
BXPC-3 (pancreas)
  GI50 for Cell Line BXPC-3: 46 ng/mL
NCI-H460 (lung-NSC)
  GI50 for Cell Line NCI-H460: 2.7 ng/mL
MDA-MB-231 cells
  tumor growth (tumor volume) relative to control treatment: significantly inhibited tumor growth

— US20070082872A1, “Indole-containing compounds with anti-tubulin and vascular targeting activity” (priority 1999, published 2007)
